These results are taken from article PMC5653814, “Regiospecific Synthesis of Ring A Fused Withaferin A Isoxazoline Analogues: Induction of Premature Senescence by W-2b in Proliferating Cancer Cells” (Scientific Reports, 2017).

The IC50 is the concentration that gives 50% inhibition. Broadly, the inhibition is how much of the control response was suppressed. Read a low inhibition as a response near the control.

Where two headings read alike, the source gives them in different places.

Series [1] concerns HCT-116 cells. The series can be described thus: MTT cell viability assay, HCT-116. To be noted: read-out: Cytotoxicity IC50, HCT-116. The class given is cell-based, human. The method, then:
(§1) The cell viability assay was performed according to the procedure previously described with minor modifications. Briefly, MCF7, HCT-116 and fR2 cells were plated in 96 well plates at a density of 5 × 10^3 cells per well and incubated overnight. […] MTT dye solution (2.5 mg/mL) was introduced to the cells in medium 4 h before the completion of the treatment period and the formed formazan crystals were solubilized with DMSO. Optical density was measured with the help of a UV-visible spectrophotometer coupled with microplate reader (TECAN, Infinite M200 Pro), the percent inhibition was calculated and IC50 values were determined with the help of GraphPad Prism software (GraphPad software Inc. CA, USA).
(§2) Data were expressed as the mean ± standard deviation of three independent experiments performed and analyzed by Student’s t-test. IC50 values were determined with the help of GraphPad Prism software Version 5.0 (GraphPad Software, Inc., USA) by taking the log of inhibitor vs. response. A 2-sided value of *P < 0.05 was considered significant in all cases.
(In general: Formazan colour is commonly taken as a measure of viable cells.)

Series [2] relates to fR2 cells. Kind of series: MTT cell viability assay, fR2 normal breast epithelial cells. To be noted: 48 h, read-out: Cytotoxicity IC50, fR2. In kind it is cell-based, human. Here is the method:
as §1, §2

Assay in series [3]: as above
In kind it is cell-based, human. The settings on record: human, fR2 normal breast epithelial cells, read-out: Cytotoxicity IC50, fR2. Here is the method: as §1, §2

Series [4] relates to MCF7 cells. The series can be described thus: Colony formation (clonogenic) assay, MCF7. The class given is cell-based. To be noted: Homo sapiens, 120 h; MCF7, 1.0 µM, five days. Here is the method:
(§3) The experiment was carried out according to the standardized protocol with some modifications. MCF7 and HCT-116 cells were trypsinized properly, seeded in 6 well plates at a density of 1 × 10^3 cells/well and incubated overnight. Then treatment was given to the cells with vehicle, doxorubicin and various concentrations of W-2b for five days. Cells were then washed, fixed with 4% paraformaldehyde for 10 min, rewashed twice and stained with 0.25% crystal violet solution for 1 h. The wells containing the cells were then washed thoroughly with distilled water to remove any extra stains and then air dried overnight. The plate was then observed under an inverted microscope and colonies from three random fields were counted, averaged and photographed with NIKON camera (D3100) at 4x magnification.

Series [5] concerns MCF7 cells. Kind of series: SA-β-gal activity assay, MCF7. The class given is cell-based, human. To be noted: MCF7, sub-toxic concentrations, five days. The method, then: (§4) The procedure was followed as described previously with some modifications. Briefly, MCF7 and HCT-116 cells (0.4 × 10^6 per well) were seeded in six-well plates and treated with indicated concentrations of W-2b along with WA, vehicle and positive control doxorubicin for five days. Cells were accordingly washed twice with PBS, fixed with 4% paraformaldehyde for 5 min, rinsed twice with PBS and incubated with freshly prepared staining solution (40 mM citric acid/Na phosphate buffer, 5 mM K4[Fe(CN)6] 3H2O, 5 mM K3[Fe(CN)6], 150 mM sodium chloride, 2 mM magnesium chloride and 1 mg/ml X-gal in distilled water, pH 6.0) for 48 h at 37 °C. Stained cells were thoroughly washed and air dried in dark. Cells were then observed under bright field microscope (NIKON) for the SA-β-gal positive cells and images were captured at 20x magnification.

The subject of series [6] is MCF7 cells. The series can be described thus: Flow cytometric cell cycle analysis (propidium iodide), MCF7. The class given is cell-based, human. To be noted: MCF7, 1.0 µM, 48 h; vehicle 13.03%. The method, then:
MCF7 cells were seeded at a density of 0.4 × 10^6 cells/well in 35 mm dishes and incubated overnight at 37 °C and 5% CO2. Next day, cells were treated with vehicle and W-2b at indicated concentrations for 48 h. They were then trypsinized, centrifuged at 2000 rpm for 3 min, washed twice with ice-cold PBS and fixed with ice-cold 70% ethanol (v/v) for 1 hour at 4 °C. Cells were then pelleted down at 2000 rpm for 3 min, washed with PBS and incubated first with 200 μg/ml of RNase A in PBS at 37 °C water bath for 90 min and then with 50 μg/mL of propidium iodide (PI) at room temperature for 30 min in dark. The samples were then analyzed by BD Accuri C6 flow cytometer (BD Biosciences).

Series [7] deals with 4T1 mouse mammary carcinoma. Kind of series: In vivo tumor growth, 4T1 mouse mammary carcinoma model. To be noted: 25 mg/kg b.w. intraperitoneal. Here is the method: The experiment was performed according to the pre-standardized protocol with minor modifications. To evaluate the in vivo anti-tumor efficacy of W-2b, healthy female Balb/c mice (25–30 g) were taken. Animals were randomized into three groups, and six animals were taken per group. For the tumor cells implantation, mouse mammary carcinoma 4T1 cells (1 × 10^6 per 200 μL) diluted in serum-free RPMI medium were injected subcutaneously into the mammary pad of each mouse around the second right mammary gland. A week after tumor cell implantation, when the palpable mammary tumors develop, mice were injected intraperitoneally with either vehicle (normal saline) or 5-FU (25 mg/kg/b.w.) or W-2b (25 mg/kg/b.w.) in each alternative day for two weeks. Tumor sizes were measured in each alternate day after tumor cell injection, and the body weight was recorded once in a week. Mice were sacrificed on the 15th day after treatment initiation, and tumors were dissected out carefully from the mammary pad area.

Series [8] relates to HCT-116 cells. The series can be described thus: SA-β-gal activity assay, HCT-116. In kind it is cell-based, human. To be noted: HCT-116, sub-toxic concentrations, five days. The method, then: as §4
For series [9], the system named is fR2 cells. The series can be described thus: SA-β-gal staining, fR2. In kind it is cell-based, human. To be noted: fR2, sub-toxic doses 1–2 µM.
The subject of series [10] is HCT-116 cells. The series can be described thus: Colony formation (clonogenic) assay, HCT-116. The class given is cell-based. To be noted: Homo sapiens, 120 h; HCT-116, 1.5 µM, five days. Here is the method:
as §3

The subject of series [11] is MCF7 cells. Kind of series: MTT cell viability assay, MCF7. The class given is cell-based, human. The settings on record: read-out: Cytotoxicity IC50, MCF7. The method, then:
as §1, §2

Turning to `CC1=C(CO)C(=O)OC(C(C)C2CCC3C4CC5OC56C(O)C5ON=C(c7ccc([N+](=O)[O-])cc7)C5C(=O)C6(C)C4CCC23C)C1` (stereo not drawn) [W-2b, 4-nitrophenyl-2-isoxazoline withaferin A], the half-maximal inhibitory concentration (IC50) stood at 1250 ± 156 nM with HCT-116 cells [1] (48 h); 1480 ± 129 nM in the series on HCT-116 cells [1] (Homo sapiens, HCT-116, 24 h, 24 h); 1030 ± 330 nM in the series with HCT-116 cells [1] (Homo sapiens, HCT-116, 72 h, 72 h); 35500 ± 6120 nM in the series on fR2 cells [2]; 705 ± 59 nM in the series on MCF7 cells [11] (48 h); 881 ± 52 nM with MCF7 cells [11] (Homo sapiens, MCF7, 24 h, 24 h). Moreover, the IC50 with MCF7 cells [11] (Homo sapiens, MCF7, 72 h, 72 h) was found to be 682 ± 75 nM. For the same molecule, the IC50 at 24 h in series [3] (24 h) was found to be 39700 ± 7300 nM. Further, in series [3] (72 h), the IC50 at 72 h was determined as 33900 ± 8230 nM. Further, the inhibition at 1 µM in the series on MCF7 cells [4] was over 70%. The SA-β-gal positive cells was 58% with MCF7 cells [5], 53% with HCT-116 cells [8] and 15–19% with fR2 cells [9]. Further, the “Cells in G2/M phase” value in the series on MCF7 cells [6] worked out at 45.5%. For the same molecule, the “Inhibition in tumor volume” value in series [7] (each alternate day for two weeks, Balb/c mice) is on record as 83.8%. The “Inhibition in tumor weight” value in series [7] (each alternate day for two weeks, vs normal saline group) is on record as 91.2%. Further, the “Tolerability of treated animals” value in series [7] (two weeks) is listed as “remained healthy without any serious side effects or mortality”. Also, in the series on HCT-116 cells [10], the inhibition at 1.5 µM is over 70%.
